Results taken from patent publication US20080221017A1, “Pharmaceutical or cosmetic composition and use of a PKC inhibitor with an MMP inhibitor for inhibiting langerhans cell migration” (Laboratoires Expanscience, priority 2000, published 2008).

Test system: Langerhans cells (LCs)
Experiment: Migration of LCs through Matrigel in a two-compartment culture chamber (DNSB-sensitized)
Type: cell-based, human
Settings: for LC migration index: 18 h at 37° C., control cells fixed at 1
Method: Suspensions of epidermal cells were obtained by enzyme treatment (0.05% trypsin, for 18 h at +4° C.) of fragments of normal human skin derived from plastic surgery.
D-sphingosine was diluted in ethanol so as to obtain a stock solution at 5×10^−3 M. The D-sphingosine was used at a concentration of 2.5 μM, the dilution carried out in RPMI containing 1% of bovine serum albumin (RPMI-BSA).
A peptide extract of lupin was used as MMP inhibitor. It is the peptide extract LU105 from Laboratoires Pharmascience.
The cells were pre-incubated at 37° C. for 60 min in the presence of LU105, before adding to the medium the hapten DNSB as sensitizing agent.
As sensitizing agent, DNSB (Sigma Aldrich) was used, the soluble form of DNCB (dinitrochlorobenzene), and was solubilized in RPMI-BSA and used at a concentration of 50 μM.
A two-compartment culture chamber system (Falcon, Becton Dickinson, France) was used. The upper compartment is separated from the lower compartment by a membrane with a porosity of 8 μm, onto which are deposited 50 μg/cm^2 of Matrigel. The membrane is then covered with proteins, forming a film equivalent to a basal membrane (laminin, collagen IV, nidogen, entactin, heparan sulfate proteoglycans). The cells taken up in the RPMI-BSA medium alone or in the presence of the various products are placed in the upper compartment. Normal human fibroblast culture supernatant is added to the lower compartment. After incubation for 18 h at 37° C., the number of living cells which have crossed the Matrigel and are in the lower compartment is counted under a microscope (the LCs are easily identifiable by their dendritic shape). Each assay is carried out in triplicate.

SMILES	effect on the LC migration induced by DNSB (in words) (D-sphingosine 2.5 μM)	LC migration index (DNSB+D-sphingosine (2.5 μM))	LC migration index (cells sensitized with the hapten DNSB (50 μM) alone)	increase of LC migration compared to the normal unstimulated cells (control cells) (treatment with the hapten DNSB alone)
CCCCCCCCCCCCC/C=C/[C@@H](O)[C@@H](N)CO (relative stereo) [D-sphingosine, D-erythro-1,3-dihydroxy-2-amino-4-trans-octadecene]	significantly inhibits	1.15	–	–
O=[N+]([O-])c1ccc(S(=O)(=O)O)c([N+](=O)[O-])c1 [DNSB, reference compound]	–	–	1.61	61%
